Tests used:
[1] = target: T1, SIRT1 (Homo sapiens, UniProt Q96EB6); experiment: Acetylation of p53 (K382) via UV irradiation, western blot, IMR90 cells; format: cell-based; settings: FIGS. 2G-2H
T1 construct: endogenous in cells; host or cells: U2OS cells; IMR90 cells
T1 sequence (Q96EB6 1-747): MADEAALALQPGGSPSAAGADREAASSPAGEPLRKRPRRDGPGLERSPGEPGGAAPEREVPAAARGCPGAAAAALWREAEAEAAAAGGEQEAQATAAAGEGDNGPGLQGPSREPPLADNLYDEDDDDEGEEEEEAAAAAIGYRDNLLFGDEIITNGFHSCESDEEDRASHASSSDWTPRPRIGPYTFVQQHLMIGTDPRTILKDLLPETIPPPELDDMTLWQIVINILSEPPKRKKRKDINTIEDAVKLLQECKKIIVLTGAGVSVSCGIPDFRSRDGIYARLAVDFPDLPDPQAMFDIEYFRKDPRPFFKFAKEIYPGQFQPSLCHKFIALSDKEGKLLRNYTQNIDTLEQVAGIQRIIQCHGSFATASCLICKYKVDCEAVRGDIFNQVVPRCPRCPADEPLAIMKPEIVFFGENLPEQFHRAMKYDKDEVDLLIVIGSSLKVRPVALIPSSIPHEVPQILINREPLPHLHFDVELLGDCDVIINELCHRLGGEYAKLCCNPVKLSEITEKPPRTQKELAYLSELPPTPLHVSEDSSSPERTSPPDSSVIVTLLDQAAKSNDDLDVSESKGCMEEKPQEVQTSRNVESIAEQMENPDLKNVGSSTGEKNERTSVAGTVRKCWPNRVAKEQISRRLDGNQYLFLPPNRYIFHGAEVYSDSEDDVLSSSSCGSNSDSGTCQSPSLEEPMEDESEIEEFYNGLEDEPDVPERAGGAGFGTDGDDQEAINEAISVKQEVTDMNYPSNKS
Method: U2OS cells (1.2×10^5 cells/dish) or IMR90 cells (3.0×10^5 cells/dish) were seeded into a 3.5 cm culture dish, and incubated with 0, 10, 25, 50, or 100 μM PN6 for 16 hours, before subjected to UVB irradiation at 7.5 mJ/m^2 (for U2OS cells) or 5.0 mJ/m^2 (for IMR90 cells) for 4 hours.
Cells were harvested with a 1.25× Laemmli buffer and lysed in RIPA lysis buffer containing 1% of Triton X-100 and a protease inhibitor cocktail, and total protein concentrations were measured with a protein assay kit. Proteins in the samples of the lysates with the same amounts of total protein were separated by sodium dodecyl sulfate polyacrylamide gel electrophoresis (SDS-PAGE) (10% polyacrylamide gels) and analyzed by immunoblotting. Primary antibodies against p53ac (K382) (1:1,000), p21 (1:1,000), and 3-actin (1:200,000) were applied to detect the corresponding proteins. Horseradish peroxidase (HRP)-conjugated secondary antibodies against mouse IgG were then incubated with the membranes, and proteins were visualized by chemiluminescence according to the manufacturer's instructions. Protein quantification was performed by software.

[2] = target: T2, SIR2/SIRT1 (Homo sapiens, UniProt Q96EB6); experiment: SIR2/SIRT1 activity assay (SIRT1 fluorometric drug discovery kit); format: biochemical; settings: SIRT1 activity assay kit; FIG. 2K
T2 construct: purchased Enzo Life Sciences, Inc
T2 sequence (Q96EB6 2-747 limits assumed): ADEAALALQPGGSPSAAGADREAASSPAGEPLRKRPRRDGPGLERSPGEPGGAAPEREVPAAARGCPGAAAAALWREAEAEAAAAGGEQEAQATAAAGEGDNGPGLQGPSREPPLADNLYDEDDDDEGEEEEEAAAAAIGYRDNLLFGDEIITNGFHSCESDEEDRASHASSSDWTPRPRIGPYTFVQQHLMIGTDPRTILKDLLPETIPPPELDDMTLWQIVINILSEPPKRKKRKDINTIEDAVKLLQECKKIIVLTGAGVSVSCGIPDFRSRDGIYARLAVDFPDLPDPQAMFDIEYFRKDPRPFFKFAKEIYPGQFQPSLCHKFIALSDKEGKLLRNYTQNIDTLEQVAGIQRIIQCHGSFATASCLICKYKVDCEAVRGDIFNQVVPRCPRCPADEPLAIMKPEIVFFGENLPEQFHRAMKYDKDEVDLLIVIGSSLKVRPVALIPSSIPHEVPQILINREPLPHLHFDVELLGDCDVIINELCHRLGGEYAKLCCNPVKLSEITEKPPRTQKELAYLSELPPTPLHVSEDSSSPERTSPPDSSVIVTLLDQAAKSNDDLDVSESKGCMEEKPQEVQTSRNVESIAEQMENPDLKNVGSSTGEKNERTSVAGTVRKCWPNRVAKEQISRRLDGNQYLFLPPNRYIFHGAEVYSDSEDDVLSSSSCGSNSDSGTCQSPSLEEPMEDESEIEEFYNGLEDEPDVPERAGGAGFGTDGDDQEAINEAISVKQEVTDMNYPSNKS
Method: The activity of SIR2/SIRT1 was assessed using a SIRT1 fluorometric drug discovery kit (Enzo Life Sciences, Inc.), in accordance with the manufacturer's instructions. Fluorescence was excited at 360 nm and emitted at 460 nm.

[3] = test system: HUVECs; experiment: Population doubling (PD) assay; format: cell-based, human; settings: 1 or 2 μM; FIG. 3A
Method: (§1) For the population doubling (PD) assay, HUVECs (1×10^5 cells/3.5 cm dish) were propagated in the presence of DMSO (i.e., control) or PN6 (1 or 2 μM) until senescence (Day 41), and the cell numbers in each passage were recorded to generate a growth curve that represented the cumulative population doubling. The population doubling levels (PDLs) of HUVECs were calculated in every culture to indicate the proliferation capacity of HUVECs under the respective conditions. The population doublings (PDs) were estimated using the equation: PDL=3.32 (log (total viable cells at harvest/total viable cells at seeding). Also, HUVECs at passages PDL4 and PDL11 cultured in 0 μM (i.e., DMSO alone), 1 μM, or 2 μM PN6 were harvested for further analyses (e.g., western blot and SA-β-gal staining).

[4] = test system: HUVECs; experiment: Senescence-associated (SA)-β-gal staining; format: cell-based, human; settings: HUVECs at PDL11, versus control without PN6; FIG. 3C
Method: as §1
HUVECs at 90% confluency were collected, washed, and fixed with 2% formaldehyde and 0.2% glutaraldehyde for 5 minutes. The cells were then subjected to staining by incubation with a staining solution (40 mmol/l citric acid, sodium phosphate, pH 6.0, 1 mg/ml 5-bromo-4-chloro-3-isolyl-β-D-galactoside (X-gal, Sigma), 5 mmol/l potassium ferrocyanide, 5 mmol/l potassium ferricyanide, 150 mmol/l NaCl, and 2 mmol/l MgCl2) at 37° C. for 18-24 hours. The results of SA-β-gal-positive cells were observed by microscopy, and were counted for over 300 cells in at least three independent fields.

[5] = test system: aged C57BL/6J mice; experiment: Survival, body weight and food intake of aged mice

CCC(CC[C@@H](C)C1CCC2C3CC(=O)[C@H]4C[C@@H](O)CC[C@]4(C)C3CC[C@@]21C)C(C)C (stereo in doubt) [PN6, (24S)-3β-hydroxy-5α-stigmastan-6-one]
SIRT1 activity / acetylation of P53 at K382 [1]: increased SIRT1 activity to reverse acetylation of P53 at K382 | SIRT1 activity [2]: directly increase the SIRT1 activity | population doubling level (PDL) of HUVECs [3]: increase the PDL | number of SA-β-gal-positive senescent cells [4]: decrease in the number | trajectories of body weight ([5]; chow containing 50 mg/kg PN6, FIG. 4B): remained in a steady state | lifespan of the aged mice ([5]; chow containing 50 mg/kg PN6, versus SD group, FIG. 4A): significantly increased the lifespan | food intake ([5]; versus SD group, entire course of the experiment, FIG. 4C): did not diverge
